Melting point data for eleven molecules are collected here from patent US20050209216A1, “Phenyl-and pyridyl-diazaheterocycles having a tnf-modulating activity” (priority 2002, published 2005).

Structures can show the parent of a compound that is named as a salt.

`FC(F)(F)c1cccc(N2C3CCC2CN(CCc2ccc4ccncc4c2)C3)c1` (as salt: hydrochloride) (hydrate or solvate) yielded a melting point of 151 to 153 °C.

In turn, `FC(F)(F)c1cccnc1N1CCN(CCc2ccc3cccnc3c2)CC1` (as salt: hydrochloride) [Example 13] registered a melting point of 163 to 164 °C.

On to `FC(F)(F)c1cccc(N2CC3CCC(C2)N3CCc2ccc3ccncc3c2)c1` (as salt: oxalate), for which the melting point fell in the range of 97 to 99 °C.

`FC(F)(F)c1cccc(N2C3CCC2CN(CCc2ccc4ccncc4c2)C3)n1` (as salt: hydrochloride) (hydrate or solvate) showed a melting point of 158 to 160 °C.

`FC(F)(F)c1cccc(N2CC3CCC(C2)N3CCc2ccc3ccncc3c2)n1` (as salt: hydrochloride) (hydrate or solvate) had a melting point of 258 to 260 °C.

As for `Clc1cccc(N2CCN(CCc3ccc4cccnc4c3)CC2)n1` (as salt: oxalate) [Example 10], the melting point is 170 to 172 °C.

Molecule `FC(F)(F)c1cccc(N2CCCN(CCc3ccc4ccncc4c3)CC2)c1` (as salt: oxalate) [Example 4] showed a melting point of 135 to 137 °C.

In turn, `Clc1cccc(N2CCN(CCc3ccc4ccncc4c3)CC2)n1` (as salt: hydrochloride) (hydrate or solvate) [Example 3] displayed a melting point of 108 to 110 °C.

`FC(F)(F)c1ccc(N2CCN(CCc3ccc4cccnc4c3)CC2)nc1` (as salt: hydrochloride) [Example 12]: the melting point fell in the range of 108 to 110 °C.

On to `FC(F)(F)c1cccc(N2CCN(CCc3ccc4cccnc4c3)CC2)n1` (as salt: hydrochloride) [Example 11], for which the melting point lay within 228 to 230 °C.

Consider `Clc1cccc(N2CC3CCC(C2)N3CCc2ccc3ccncc3c2)n1`, for which the melting point is 141 to 142 °C.
